Source: patent publication US20070066616A1, “Inhibitors for extracellular signal-regulated kinase docking domains and uses therefor” (priority 2005, published 2007)

What was measured:
[1] = system: ERK-mediated phosphorylation of Rsk-1 on Thr573; assay: ERK-mediated Rsk-1 phosphorylation (Thr573), immunoblot and densitometry in EGF-stimulated HeLa cells; format: cell-based, human; details: immunoblot
Method: Prior to harvesting, cells were pre-incubated with the test compounds for 15-20 minutes and then stimulated with EGF or anisomycin to activate the ERK or p38 MAP kinase pathways, respectively. Control and treated cells were washed twice with cold phosphate buffered saline (PBS, pH 7.2; Invitrogen) and proteins were collected following cell lysis with 300 μl of cold tissue lysis buffer (20 mM Tris, pH 7.4, 137 mM NaCl, 2 mM EDTA, 1% Triton X-100, 0.1% SDS, 25 mM β-glycerophosphate, 2 mM sodium pyrophosphate, 10% glycerol, 1 mM sodium orthovanadate, 1 mM phenylmethylsulfonyl fluoride (PMSF), 1 mM benzamidine), allowed to incubate on ice for about 10 minutes and then centrifuged at 20,000 (X g) to clarify the lysates of insoluble material. The lysates then were diluted with an equal volume of 2X SDS-sample buffer and the proteins were separated on SDS-PAGE for immunoblot analysis. Immunoblot analysis was done as previously described (41-43).
All compounds were subjected to assays of ERK specific phosphorylation of Rsk-1 and/or Elk-1 as examined by immunoblot analysis using phosphorylation specific antibodies. In FIG. 5A HeLa cells were cultured in 24 well plates and pretreated for 20-30 minutes with […] of the selected test compounds. The cells were stimulated with epidermal growth factor (EGF, 50 ng/ml) for 5 minutes to activate the ERK pathway. Cell lysates were collected and immunoblotted for ERK-mediated phosphorylation of Rsk-1 on Thr573. As shown, EGF treatment alone caused a robust increase in Thr573 phosphorylation on Rsk-1 in the absence of test compounds. The presence of test compounds had inhibitory effects on ERK-mediated Rsk-1 phosphorylation.
Compounds 86-98 were first tested for inhibition of ERK mediated phosphorylation of the transcription factor Elk-1, which is an important regulator of cell proliferation. Cells were treated with EGF to activate the ERK pathway and phosphorylation of Elk-1 on the ERK site at S383 was detected by immunoblot analysis (FIG. 5C). […] The effects of the test compounds were also tested with Rsk-1, another ERK substrate involved in regulating cell proliferation.

[2] = system: ERK-mediated phosphorylation of Elk-1 on S383; assay: ERK-mediated Elk-1 phosphorylation (Ser383), immunoblot in EGF-stimulated HeLa cells; format: cell-based, human
Method: Prior to harvesting, cells were pre-incubated with the test compounds for 15-20 minutes and then stimulated with EGF or anisomycin to activate the ERK or p38 MAP kinase pathways, respectively. […] The lysates then were diluted with an equal volume of 2X SDS-sample buffer and the proteins were separated on SDS-PAGE for immunoblot analysis. Immunoblot analysis was done as previously described (41-43).
Cells were treated with EGF to activate the ERK pathway and phosphorylation of Elk-1 on the ERK site at S383 was detected by immunoblot analysis (FIG. 5C). […] The effects of the test compounds were also tested with Rsk-1, another ERK substrate involved in regulating cell proliferation.

ERK2 T157A = biological target: T1, ERK2 T157A (Mus musculus, UniProt P63085, T157A); assay: Fluorescence titration with ERK2 point mutant T157A (ED domain); format: binding; details: fluorescence quenching
T1 construct: (His)x6; made in house; host or cells: bacteria (as described for ERK2 in general; not repeated for the mutant)
T1 sequence (P63085 whole entry T157A, the tested form may be a part): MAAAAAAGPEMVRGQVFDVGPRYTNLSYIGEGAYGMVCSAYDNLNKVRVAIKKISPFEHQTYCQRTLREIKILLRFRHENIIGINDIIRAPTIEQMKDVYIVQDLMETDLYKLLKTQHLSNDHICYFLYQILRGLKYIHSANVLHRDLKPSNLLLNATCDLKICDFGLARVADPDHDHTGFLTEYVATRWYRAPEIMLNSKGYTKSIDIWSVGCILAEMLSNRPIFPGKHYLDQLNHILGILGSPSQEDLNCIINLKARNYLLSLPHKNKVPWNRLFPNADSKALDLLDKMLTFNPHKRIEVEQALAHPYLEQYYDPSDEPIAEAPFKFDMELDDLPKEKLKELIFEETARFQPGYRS
Method: Direct binding interactions between ERK2 and the biologically active compounds is determined using fluorescence spectroscopy (47). Experiments measure the changes in the intrinsic ERK2 fluorescence due to the presence of aromatic amino acids, with the indole group of tryptophan being the major fluorophore with absorption and emission maxima around 280 and 340 nanometers (nm), respectively. Fluorescence spectra were recorded with a Luminescence Spectrometer LS50 (Perkin Elmer, Boston, Mass.). For all experiments, ERK2 protein was diluted into 20 mM Tris-HCl, pH 7.5. Titrations were performed by increasing the test compound concentration while maintaining the ERK2 protein concentration at 3 μM.
Unphosphorylated and phosphorylated ERK2 typically are incubated with […] of the biologically active compounds and the fluorescence intensity is measured. If necessary, higher inhibitor concentrations are used to saturate fluorescence quenching. The excitation wavelength was 295 nm and fluorescence was monitored from 300 to 500 nm. All reported fluorescence intensities are relative values and are not corrected for wavelength variations in detector response. […] Because the test compounds contain aromatic structures, the emission spectra of the active compounds in the absence of ERK2 is be determined. […]

[3] = system: SUM-159 estrogen-receptor negative breast cancer cell line; assay: Cell proliferation, SUM-159 cells; format: cell-based, human
Method: HeLa, A549, or SUM-159 cells were plated at a low density of ˜200-400 cells per well in the absence or presence of putative ERK docking domain inhibitors. Cell colonies were stained with crystal violet and counted after 6-10 days. In FIG. 7A cells were grown on 10 cm plates in the absence (−) or presence of 100 mM of compound 67, 36, 68, 81, or 76. Colony formation dose response in the presence of the indicated concentrations of compound 76 or 81 for Hela cells (100 mM) (FIG. 7B), A549 cells (50 mM) (FIG. 7C), or SUM-159 cells (50 mM) (FIG. 7D).
(§1) Trypsinized cells were plated on 12 or 24 well plates at low densities (200-400 cells per well) in the absence (DMSO only) or presence of test compounds. In additional experiments, cells were first allowed to adhere to the culture dishes for 16 hours prior to treatment with test compounds. The treated cells received a single dose of the test compounds at the beginning of the experiments. The control and treated cells were grown for 8-14 days to allow the formation of colonies. Cells then were fixed for 10 minutes in 4% paraformaldehyde and stained with 0.2% crystal violet (in 20% methanol) for 1-2 minutes. Following several washes with distilled water, the colonies (containing at least 40 cells) were counted. Each individual experiment was repeated on at least 3 separate occasions.

[4] = system: HT1080 fibrosarcoma cells; assay: Cell proliferation, HT1080 cells; format: cell-based, human; details: data not shown
Method: as §1

Compound: CCOc1ccc(C=C2SC(=O)N(CCN)C2=O)cc1 [Compound 76]
- effect on ERK-mediated Rsk-1 phosphorylation (in words) [1]: highest inhibition
- effect on ERK-mediated Elk-1 phosphorylation (in words) [2]: inhibited
- reduction in binding affinity compared to wild type ERK2 (ERK2 T157A): approximately 5 fold
- inhibition of cell proliferation in SUM-159 (in words) [3]: inhibition of cell proliferation
- inhibition of cell proliferation in HT1080 (in words) [4]: inhibition of cell proliferation
